Source: patent publication US20220331290A1, “PHARMACEUTICAL COMPOSITION FOR PREVENTING OR TREATING SARCOPENIA, CONTAINING UNNATURAL AMINO ACID” (MYO-TEC-SCI, priority 2019, published 2022)

Experiments:
myostatin promoter = test: Myostatin promoter activity, dual luciferase assay in C2C12 cells transfected with pGL4.15-MSTN; assay type: cell-based, mouse; conditions: for myostatin promoter activity reduced by: 1 mM, C2C12 cells, medium without L-leucine, after one day; for promoter activity of myostatin: C2C12, medium without L-leucine
Protocol: After seeding 1×10^5 cells of mouse skeletal muscle cells C2C12 (ATCC, US) in a 12-well culture plate, on the next day, pGL4.15 empty vector and pGL4.15-MSTN vector containing myostatin promoter were transfected using Lipofectamine 2000 for 4 hours. After 4 hours, the complete medium (0.8 mM L-leucine) and the medium without L-leucine were treated with D-leucine or DL-leucine at concentrations of 0.001 mM, 0.01 mM, 0.1 mM, and 1 mM, respectively. After one day, a dual luciferase assay kit (Promega Inc.) was used to measure the promoter activity of myostatin.
In the same manner as the experiment to examine the inhibitory effect of a myostatin promoter activity by D-leucine or DL-leucine, D-alanine was treated at concentrations of 0.01 mM, 0.1 mM, 1 mM, and 10 mM in a medium without L-leucine, and a dual luciferase assay kit (Promega Inc.) was used to measure the promoter activity of myostatin.
In the same manner as in the experiment to examine the inhibitory effect of a myostatin promoter activity by D-leucine or DL-leucine, and D-alanine, D-proline was treated at concentrations of 0.001 mM, 0.01 mM, 0.1 mM, and 1 mM in a medium without L-leucine, and a dual luciferase assay kit (Promega Inc.) was used to measure the promoter activity of myostatin.
In the same manner as the myostatin promoter activity experimental method performed in Example 1 above, D-phenylalanine (0.001-0.1 mM), D-serine (0.001-0.1 mM), D-tyrosine (0.0001-0.01 mM), D-asparagine monohydrate (0.001-0.1 mM), D-aspartic acid (0.0001-0.01 mM), D-methionine (0.001-0.1 mM), D-cysteine hydrochloride monohydrate (0.001-0.1 mM), D-glutamic acid (0.0001-0.01 mM), D-arginine (0.001-0.1 mM), and D-tryptophan (0.001-0.1 mM) were treated, respectively. The myostatin mRNA expression level was identified using qRT-PCR, and the myostatin mRNA expression value was corrected using the expression value of beta-actin.

myostatin mRNA = test: Myostatin mRNA expression by qRT-PCR in C2C12 cells, corrected with beta-actin; assay type: cell-based, mouse; conditions: C2C12, medium without L-leucine
Protocol: After seeding mouse skeletal muscle cells C2C12 (ATCC, US) 3×10^5 cells in a 6-well culture plate, on the next day, D-leucine was treated at concentrations of 0.01 mM, 0.1 mM, and 1 mM in a complete medium (0.8 mM L-leucine) and a medium without L-leucine. […]

Structure (SMILES): CC(C)C[C@@H](N)C(=O)O [D-leucine]
- myostatin promoter activity reduced by (myostatin promoter): 54%
- expression of myostatin mRNA (myostatin mRNA; D-leucine 0.01, 0.1 and 1 mM, after one day): decreased in a dose-dependent manner

Structure (SMILES): O=C(O)[C@H]1CCCN1 [D-proline]
- promoter activity of myostatin (myostatin promoter; D-proline at 0.001 mM or more (0.001-1 mM tested), 24 hours (FIG. 8)): decreased
- mRNA expression level of myostatin (myostatin mRNA; D-proline at 0.1 mM or more (0.1 and 1 mM tested), 24 hours (FIG. 9)): decreased

Structure (SMILES): CC(C)CC(N)C(=O)O (racemic) [DL-leucine]
- myostatin promoter activity reduced by (myostatin promoter): 41%

Structure (SMILES): C[C@@H](N)C(=O)O [D-alanine]
- promoter activity of myostatin (myostatin promoter; D-alanine at 0.01 mM or more (0.01-10 mM tested), 12 hours (FIG. 6)): decreased
- mRNA expression level of myostatin (myostatin mRNA; D-alanine at 0.001 mM or more (0.001-1 mM tested), 12 hours (FIG. 7)): decreased
